Reference: PubChem BioAssay AID743068 (The Scripps Research Institute Molecular Screening Center, 2013)

System: T. brucei
Assay: growth inhibition of T. brucei parasites, late-stage follow-up, T. brucei MetRS inhibitor project, absorbance, round 1 (AID 743068)
Conditions: T. brucei Lister 427 bloodstream forms, AlamarBlue fluorescence, 48 h

| Structure (SMILES) | IC50 [µM] |
| --- | --- |
| COc1cccc(NC(=O)C2CC(=O)n3c(nc4ccccc43)N2)c1 (stereo not given) | > 10 |
| O=C(NCc1nc2ccccc2[nH]1)C1=C[C@H](c2ccccc2)C[C@H](OCc2ccc(CO)cc2)O1 | > 10 |
| O=C1CC(NCCc2ccccc2)C(=O)N1c1ccc(Br)cc1 (stereo not given) | > 10 |
| CCc1ccc2[nH]c3nc(SCC(=O)NCc4cccc(OC)c4)nnc3c2c1 | > 10 |
| CCN(CC)C(=O)C(=O)c1cn(CC(=O)N2CCCc3ccccc32)c2ccccc12 | > 10 |
| O=C(Cn1cc(C(=O)c2ccccc2)c2ccccc21)Nc1cccc(C(F)(F)F)c1 | 4.2 |
| O=C(CSC1CC(=O)N(c2cccc(Cl)c2)C1=O)Nc1ccc(Br)cc1 (stereo not given) | > 10 |
| CCC(=O)c1cn(CC(=O)Nc2cccc(C(F)(F)F)c2)c2ccccc12 | > 10 |
| O=C(NCc1nc2ccccc2[nH]1)C1=C[C@H](c2ccc3c(c2)OCO3)C[C@H](OCCCCO)O1 | > 10 |
| COc1ccc(CCN(C(=O)c2cccc(F)c2)C2CC(=O)N(c3ccc(Br)cc3)C2=O)cc1 (stereo not given) | > 10 |
| COc1ccc(CCN(C(=S)Nc2ccccc2)C2CC(=O)N(c3ccc(Cl)cc3)C2=O)cc1 (stereo not given) | 2.1 |
| O=C(Cn1cc(C(=O)C2CC2)c2ccccc21)Nc1cccc(C(F)(F)F)c1 | 2.62 |
| COc1ccc(NC(=O)CSc2nnc3c4cc(C)ccc4n(C)c3n2)cc1 | > 10 |
| CCN(CCc1nc2ccc(C)cc2[nH]1)C(=O)c1ccc2ncccc2c1 | > 10 |
| CCc1ccc2c(c1)c1nnc(SCC(=O)Nc3ccc4c(c3)OCO4)nc1n2C | > 10 |
| CNC(=S)N(CCc1ccccc1)C1CC(=O)N(c2ccc(Br)cc2)C1=O (stereo not given) | 3.44 |
| CC1Cc2ccccc2N1C(=O)Cn1cc(C(=O)C(=O)N2CCOCC2)c2ccccc21 (stereo not given) | > 10 |
| Cc1ccc(CNC(=O)CSc2nnc3c(n2)[nH]c2ccc(C)cc23)cc1 | > 10 |
| CCCCn1c(CCNC(=O)c2ccc(F)cc2)nc2ccccc21 | > 10 |
| CC(C)c1nc2ccc(C(=O)N(C)CCc3nc4ccc(F)cc4[nH]3)cc2o1 | > 10 |
| O=C(NCCc1nc2ccccc2[nH]1)c1ccc(Cl)cc1 | > 10 |
| COc1ccccc1NC(=O)CSc1nnc2c(n1)[nH]c1ccc(C)cc12 | > 10 |
| Cc1ccc(C(=O)NCCc2nc3ccccc3[nH]2)cc1C | > 10 |
| CC(C)(C)[C@H]1C=C(C(=O)NCc2nc3ccccc3[nH]2)O[C@@H](OCc2ccc(CO)cc2)C1 | > 10 |
| CCN(CC)C(=O)C(=O)c1cn(CC(=O)N(CC)c2ccccc2)c2ccccc12 | > 10 |
| O=C(NCCc1nc2ccccc2[nH]1)c1ccc(Cl)cc1Cl | > 10 |
| Cc1ccc(C(=O)NCCc2nc3ccccc3[nH]2)cc1[N+](=O)[O-] | > 10 |
| O=C(Cn1cc(C(=O)C(=O)N2CCOCC2)c2ccccc21)NCc1ccccc1 | > 10 |

| Structure (SMILES) | IC50 [µM] |
| --- | --- |
| CC(=O)c1cn(CC(=O)Nc2cccc(C(F)(F)F)c2)c2ccccc12 | > 10 |
| Cc1cccc(C(=O)NCCc2nc3ccccc3n2CCOc2ccccc2)c1 | > 10 |
| O=C(Cn1cc(C(=O)C(=O)N2CCOCC2)c2ccccc21)NCC1CCCO1 (stereo not given) | > 10 |
| COCCc1nc2ccc(C(=O)NCCc3nc4ccc(OC)cc4[nH]3)cc2o1 | > 10 |
| Cc1cc2cc(C(=O)N3CCCC(c4nc5ccccc5[nH]4)C3)ccc2o1 (stereo not given) | > 10 |
| CCN(CC)C(=O)C(=O)c1cn(CC(=O)Nc2cccc(OC)c2)c2ccccc12 | > 10 |
| O=C(Cn1cc(C(=O)C(=O)N2CCCC2)c2ccccc21)Nc1ccccc1 | > 10 |
| O=C(NCCc1nc2ccccc2[nH]1)c1c(F)cccc1F | > 10 |
| CCO[C@H]1OC(C(=O)NCc2nc3ccccc3[nH]2)=C[C@@H](c2ccc(Br)cc2)[C@@H]1CCCO | > 10 |
| O=C(NCCc1nc2ccccc2[nH]1)c1ccc(Cl)c(Cl)c1 | > 10 |
| O=C(C(=O)N1CCOCC1)c1cn(CC(=O)N2CCCc3ccccc32)c2ccccc12 | > 10 |
| Cn1c(CCNC(=O)c2ccc(Cl)cc2)nc2ccccc21 | > 10 |
| Cc1cccc(NC(=O)C2CC(=O)n3c(nc4ccccc43)N2)c1 (stereo not given) | > 10 |
| CCN(C(=O)Cn1cc(C(=O)C(=O)N2CCOCC2)c2ccccc21)c1ccccc1 | > 10 |
| O=C(Cn1cc(C(=O)c2ccco2)c2ccccc21)Nc1cccc(C(F)(F)F)c1 | 8.18 |
| CC(=O)N(CCc1ccccc1)C1CC(=O)N(c2ccc(Br)cc2)C1=O (stereo not given) | > 10 |
| O=C(Cn1cc(C(=O)COc2ccccc2)c2ccccc21)Nc1cccc(C(F)(F)F)c1 | > 10 |
| Cc1ccc2[nH]c3nc(SCC(=O)Nc4ccc(C(F)(F)F)cc4)nnc3c2c1 | > 10 |
| Cc1cccc2[nH]c(C3CCCN(C(=O)c4cccc5cccnc45)C3)nc12 (stereo not given) | > 10 |
| COc1ccc(NC(=O)C2CC(=O)n3c(nc4ccccc43)N2)cc1 (stereo not given) | > 10 |
| CCN(CC)C(=O)C(=O)c1cn(CC(=O)Nc2cccc(C(F)(F)F)c2)c2ccccc12 | 2.55 |
| Cc1cccc2[nH]c(CCN(C)C(=O)c3cccc(C4CCNC4)c3)nc12 (stereo not given) | > 10 |
| O=C(CSc1nnc2c(n1)[nH]c1ccc(Br)cc12)NCc1ccccc1 | > 10 |
| CC(=O)N(CCc1ccccc1)C1CC(=O)N(c2ccc(Cl)cc2)C1=O (stereo not given) | > 10 |
| CCN(CC)C(=O)C(=O)c1cn(CC(=O)Nc2ccccc2OC)c2ccccc12 | > 10 |
| COc1ccccc1NC(=O)Cn1cc(C(=O)C(=O)N2CCOCC2)c2ccccc21 | > 10 |
| O=C(NCc1nc2ccccc2[nH]1)C1=C[C@@H](C2CC2)C[C@@H](OCc2ccc(CO)cc2)O1 | > 10 |
